# Measurements from publication PMC5218480 (PLoS ONE, 2017).
# Test system: MV-4-11 cells
# Assay: Gene expression microarray analysis (Affymetrix PrimeView) and GSEA
# Format: cell-based, human
# Set-up: RFU PODN (11730768_x_at) / Fold change /veh PODN (11730768_x_at) / RFU LINC00158 (11744669_a_at) / Fold change /veh LINC00158 (11744669_a_at) / RFU DUSP10 (11751237_a_at) / Fold change /veh DUSP10 (11751237_a_at) / RFU ID3 (11757404_x_at) / Fold change /veh ID3 (11757404_x_at) / RFU PLEKHG5 (11737974_s_at) / Fold change /veh PLEKHG5 (11737974_s_at) / RFU LRRC4B (11730491_at) / Fold change /veh LRRC4B (11730491_at) / RFU GIMAP4 (11747438_a_at) / Fold change /veh GIMAP4 (11747438_a_at) / RFU KRT8 (11758183_x_at) / Fold change /veh KRT8 (11758183_x_at) / RFU CNN1 (11734310_a_at) / Fold change /veh CNN1 (11734310_a_at) / RFU VPS37D (11726825_at) / Fold change /veh VPS37D (11726825_at) / RFU C10orf10 (11716522_x_at) / Fold change /veh C10orf10 (11716522_x_at) / RFU KIR2DL2 /// KIR2DL4 /// KIR2DL5A /// KIR2DL5B /// KIR2DS1 /// KIR2DS2 /// KIR2DS3 /// KIR2DS4 /// KIR3DL3 /// KIR3DL3 /// KIR3DS1 (11738374_at) / Fold change /veh KIR2DL2 /// KIR2DL4 /// KIR2DL5A /// KIR2DL5B /// KIR2DS1 /// KIR2DS2 /// KIR2DS3 /// KIR2DS4 /// KIR3DL3 /// KIR3DL3 /// KIR3DS1 (11738374_at) / RFU C1QL1 (11718748_at) / Fold change /veh C1QL1 (11718748_at) / RFU TMPRSS4 (11747572_a_at) / Fold change /veh TMPRSS4 (11747572_a_at) / RFU HAMP (11756126_x_at) / Fold change /veh HAMP (11756126_x_at) / RFU RNFT2 (11725882_a_at) / Fold change /veh RNFT2 (11725882_a_at) / RFU NR4A2 (11747474_a_at) / Fold change /veh NR4A2 (11747474_a_at) / RFU ABCC12 (11746883_a_at) / Fold change /veh ABCC12 (11746883_a_at) / RFU TMEM136 (11760407_x_at) / Fold change /veh TMEM136 (11760407_x_at) / RFU CLDN22 /// WWC2 (11732394_at) / Fold change /veh CLDN22 /// WWC2 (11732394_at) / RFU HLA-DPB1 (11760878_x_at) / Fold change /veh HLA-DPB1 (11760878_x_at) / RFU SPINT1 (11716480_a_at) / Fold change /veh SPINT1 (11716480_a_at) / RFU GAP43 (11754022_s_at) / Fold change /veh GAP43 (11754022_s_at) / RFU A4GNT (11735810_at) / Fold change /veh A4GNT (11735810_at) / RFU PRB3 (11715151_x_at) / Fold change /veh PRB3 (11715151_x_at) / RFU TUBB4B (11761932_at) / Fold change /veh TUBB4B (11761932_at) / RFU CAPN14 (11732068_a_at) / Fold change /veh CAPN14 (11732068_a_at) / RFU TMCC2 (11721928_a_at) / Fold change /veh TMCC2 (11721928_a_at) / RFU IRGQ (11745062_a_at) / Fold change /veh IRGQ (11745062_a_at) / RFU FAM174B (11720279_a_at) / Fold change /veh FAM174B (11720279_a_at) / RFU TMPRSS4 (11748680_a_at) / Fold change /veh TMPRSS4 (11748680_a_at) / RFU FAM212B (11763350_a_at) / Fold change /veh FAM212B (11763350_a_at) / RFU PLEKHG5 (11743358_a_at) / Fold change /veh PLEKHG5 (11743358_a_at) / RFU ZSCAN30 (11745921_a_at) / Fold change /veh ZSCAN30 (11745921_a_at) / RFU CMKLR1 (11741424_a_at) / Fold change /veh CMKLR1 (11741424_a_at) / RFU LOC101060620 /// MAPK8IP1 (11723275_at) / Fold change /veh LOC101060620 /// MAPK8IP1 (11723275_at) / RFU SPTSSB (11747773_x_at) / Fold change /veh SPTSSB (11747773_x_at) / RFU PRSS12 (11739890_at) / Fold change /veh PRSS12 (11739890_at) / RFU BIN1 (11741810_x_at) / Fold change /veh BIN1 (11741810_x_at) / RFU WNT11 (11732464_a_at) / Fold change /veh WNT11 (11732464_a_at) / RFU C10orf10 (11716521_a_at) / Fold change /veh C10orf10 (11716521_a_at) / RFU C5orf56 (11738089_at) / Fold change /veh C5orf56 (11738089_at) / RFU CYB561 (11721691_x_at) / Fold change /veh CYB561 (11721691_x_at) / RFU ANKRD19P (11752326_a_at) / Fold change /veh ANKRD19P (11752326_a_at) / RFU OR2T12 /// OR2T33 /// OR2T8 (11738714_s_at) / Fold change /veh OR2T12 /// OR2T33 /// OR2T8 (11738714_s_at) / RFU VCAN (11748164_a_at) / Fold change /veh VCAN (11748164_a_at) / RFU JSRP1 (11732532_at) / Fold change /veh JSRP1 (11732532_at) / RFU KRTAP10-11 (11738290_x_at) / Fold change /veh KRTAP10-11 (11738290_x_at) / RFU MYO3A (11730013_a_at) / Fold change /veh MYO3A (11730013_a_at) / RFU EBF3 (11725865_a_at) / Fold change /veh EBF3 (11725865_a_at) / RFU CAMK2N1 (11719241_x_at) / Fold change /veh CAMK2N1 (11719241_x_at) / RFU C5orf56 (11738088_a_at) / Fold change /veh C5orf56 (11738088_a_at) / RFU OLFML3 (11715873_a_at) / Fold change /veh OLFML3 (11715873_a_at) / RFU LOC100653217 /// NTM (11731650_a_at) / Fold change /veh LOC100653217 /// NTM (11731650_a_at) / RFU MAPK11 (11762145_a_at) / Fold change /veh MAPK11 (11762145_a_at) / RFU FIZ1 (11724087_x_at) / Fold change /veh FIZ1 (11724087_x_at) / RFU OASL (11726364_x_at) / Fold change /veh OASL (11726364_x_at) / RFU SOX15 (11748057_x_at) / Fold change /veh SOX15 (11748057_x_at) / RFU CD79A (11719716_a_at) / Fold change /veh CD79A (11719716_a_at) / RFU HIST1H1D (11736915_at) / Fold change /veh HIST1H1D (11736915_at) / RFU CASKIN2 (11723855_a_at) / Fold change /veh CASKIN2 (11723855_a_at) / RFU LOC730098 (11760151_x_at) / Fold change /veh LOC730098 (11760151_x_at) / RFU OR4N2 (11742367_at) / Fold change /veh OR4N2 (11742367_at) / RFU PRRT2 (11749266_a_at) / Fold change /veh PRRT2 (11749266_a_at) / RFU SNX32 (11753110_a_at) / Fold change /veh SNX32 (11753110_a_at) / RFU CDHR5 (11726645_a_at) / Fold change /veh CDHR5 (11726645_a_at) / RFU RCAN1 (11760418_a_at) / Fold change /veh RCAN1 (11760418_a_at) / RFU FAM167A (11723789_a_at) / Fold change /veh FAM167A (11723789_a_at) / RFU FAM26E (11764081_at) / Fold change /veh FAM26E (11764081_at) / RFU ISYNA1 (11749810_s_at) / Fold change /veh ISYNA1 (11749810_s_at) / RFU ACY1 (11761880_at) / Fold change /veh ACY1 (11761880_at) / RFU 11764098_at / Fold change /veh 11764098_at / RFU SAMD14 (11745864_x_at) / Fold change /veh SAMD14 (11745864_x_at) / RFU NPB (11741838_a_at) / Fold change /veh NPB (11741838_a_at) / RFU TMPRSS6 (11731388_a_at) / Fold change /veh TMPRSS6 (11731388_a_at) / RFU KRTAP10-2 (11738614_at) / Fold change /veh KRTAP10-2 (11738614_at) / RFU ARHGAP8 /// PRR5-ARHGAP8 (11727945_x_at) / Fold change /veh ARHGAP8 /// PRR5-ARHGAP8 (11727945_x_at) / RFU KRTAP5-7 /// NADSYN1 (11734609_at) / Fold change /veh KRTAP5-7 /// NADSYN1 (11734609_at) / RFU RASL12 (11751679_a_at) / Fold change /veh RASL12 (11751679_a_at) / RFU CDKN2B (11736163_a_at) / Fold change /veh CDKN2B (11736163_a_at) / RFU PRF1 (11729649_at) / Fold change /veh PRF1 (11729649_at) / RFU, ZNF638 /// ZNF638-IT1 / Fold change vs veh, ZNF638 /// ZNF638-IT1 / RFU, PANK3 / Fold change vs veh, PANK3 / RFU, SH3YL1 / Fold change vs veh, SH3YL1 / RFU, ZEB2 / Fold change vs veh, ZEB2 / RFU, NRIP1 / Fold change vs veh, NRIP1 / RFU, PTTG1IP / Fold change vs veh, PTTG1IP / RFU, CAPN2 / Fold change vs veh, CAPN2 / RFU, MED14 / Fold change vs veh, MED14 / RFU, SNORA58 / Fold change vs veh, SNORA58 / RFU, C1orf63 / Fold change vs veh, C1orf63 / RFU, LRRFIP1 / Fold change vs veh, LRRFIP1 / RFU, NDUFAF7 / Fold change vs veh, NDUFAF7 / RFU, SLC12A2 / Fold change vs veh, SLC12A2 / RFU, IBTK / Fold change vs veh, IBTK / RFU, ESF1 / Fold change vs veh, ESF1 / Fold change vs veh, TMEM50B / RFU, TAOK1 / Fold change vs veh, TAOK1 / RFU, ACBD3 / Fold change vs veh, ACBD3 / RFU, TMA16 / Fold change vs veh, TMA16 / RFU, RWDD3 / Fold change vs veh, RWDD3 / RFU, BCAT1 / Fold change vs veh, BCAT1 / RFU, EDEM3 / Fold change vs veh, EDEM3 / RFU, TMEM33 / Fold change vs veh, TMEM33 / RFU, WDR75 / Fold change vs veh, WDR75 / RFU, AHCTF1 / Fold change vs veh, AHCTF1 / RFU, TFRC / Fold change vs veh, TFRC / RFU, ZDHHC17 / Fold change vs veh, ZDHHC17 / RFU, NOM1 / Fold change vs veh, NOM1 / RFU, ARL8B / Fold change vs veh, ARL8B / RFU, ZBTB11 / Fold change vs veh, ZBTB11 / RFU, TAMM41 / Fold change vs veh, TAMM41 / RFU, KIAA1704 /// LOC100996395 / Fold change vs veh, KIAA1704 /// LOC100996395 / RFU, ING1 / Fold change vs veh, ING1 / RFU, TRMT61B / Fold change vs veh, TRMT61B / RFU, FUBP3 / Fold change vs veh, FUBP3 / RFU, TP53 / Fold change vs veh, TP53 / RFU, TNKS2 / Fold change vs veh, TNKS2 / RFU, ZFP14 / Fold change vs veh, ZFP14 / RFU, ACTR2 / Fold change vs veh, ACTR2 / RFU, PPP3R1 / Fold change vs veh, PPP3R1 / RFU, PIK3R1 / Fold change vs veh, PIK3R1 / RFU, HNRNPA1 / Fold change vs veh, HNRNPA1 / RFU, RNF170 / Fold change vs veh, RNF170 / RFU, ZNF28 / Fold change vs veh, ZNF28 / RFU, RNGTT / Fold change vs veh, RNGTT / RFU, OGT / Fold change vs veh, OGT / RFU, BRD1 / Fold change vs veh, BRD1 / RFU, MARS / Fold change vs veh, MARS / RFU, ZNF655 / Fold change vs veh, ZNF655 / RFU, FAHD1 / Fold change vs veh, FAHD1 / RFU, BDP1 / Fold change vs veh, BDP1 / RFU, LRRCC1 / Fold change vs veh, LRRCC1 / RFU, ARID1A / Fold change vs veh, ARID1A / RFU, ZNF146 / Fold change vs veh, ZNF146 / RFU, ZNF330 / Fold change vs veh, ZNF330 / RFU, GPN3 / Fold change vs veh, GPN3 / RFU, C9orf123 / Fold change vs veh, C9orf123 / RFU, N4BP2L2 / Fold change vs veh, N4BP2L2 / RFU, ARFIP1 / Fold change vs veh, ARFIP1 / RFU, FAM179B / Fold change vs veh, FAM179B / RFU, BCL10 / Fold change vs veh, BCL10 / RFU, UHRF1BP1L / Fold change vs veh, UHRF1BP1L / RFU, BET1 / Fold change vs veh, BET1 / RFU, CNOT2 / Fold change vs veh, CNOT2 / RFU, ZNF268 / Fold change vs veh, ZNF268 / Fold change vs veh, ZNF507 / RFU, DGCR2 / Fold change vs veh, DGCR2 / RFU, WDSUB1 / Fold change vs veh, WDSUB1 / Fold change vs veh, HSP90B1 /// MIR3652 / RFU, ADSS / Fold change vs veh, ADSS / RFU, GK / Fold change vs veh, GK / RFU, ZNF148 / Fold change vs veh, ZNF148 / RFU, TAF9 / Fold change vs veh, TAF9 / RFU, SLC1A5 / Fold change vs veh, SLC1A5 / RFU, SLMO2 / Fold change vs veh, SLMO2 / RFU, ABCC4 / Fold change vs veh, ABCC4 / RFU, LOC101060439 /// RAP1B / Fold change vs veh, LOC101060439 /// RAP1B / RFU, RFX7 / Fold change vs veh, RFX7 / RFU, GTPBP10 / Fold change vs veh, GTPBP10 / RFU, CNEP1R1 / Fold change vs veh, CNEP1R1 / RFU, BIVM-ERCC5 /// ERCC5 / Fold change vs veh, BIVM-ERCC5 /// ERCC5 / RFU, ILF3 / Fold change vs veh, ILF3 / RFU 11762660_at / Fold change /veh 11762660_at / RFU VCAN (11757783_s_at) / Fold change /veh VCAN (11757783_s_at) / RFU DDX43 (11728927_at) / Fold change /veh DDX43 (11728927_at) / RFU KRT8 (11758188_x_at) / Fold change /veh KRT8 (11758188_x_at) / RFU NKD1 (11759106_at) / Fold change /veh NKD1 (11759106_at) / RFU SRD5A1 (11742802_a_at) / Fold change /veh SRD5A1 (11742802_a_at) / RFU TPSAB1 /// TPSB2 (11721975_s_at) / Fold change /veh TPSAB1 /// TPSB2 (11721975_s_at) / RFU GSTM3 (11746129_a_at) / Fold change /veh GSTM3 (11746129_a_at) / RFU IL23R (11737362_x_at) / Fold change /veh IL23R (11737362_x_at) / RFU TMEM51 (11727254_a_at) / Fold change /veh TMEM51 (11727254_a_at) / RFU PIWIL2 (11732686_x_at) / Fold change /veh PIWIL2 (11732686_x_at) / RFU ORM1 (11744905_x_at) / Fold change /veh ORM1 (11744905_x_at) / RFU CCDC152 (11743942_at) / Fold change /veh CCDC152 (11743942_at) / RFU ECM1 (11717891_a_at) / Fold change /veh ECM1 (11717891_a_at) / RFU IL23R (11748794_a_at) / Fold change /veh IL23R (11748794_a_at) / RFU TNFAIP8L3 (11732012_x_at) / Fold change /veh TNFAIP8L3 (11732012_x_at) / RFU MBOAT4 (11741988_at) / Fold change /veh MBOAT4 (11741988_at) / RFU 11764193_at / Fold change /veh 11764193_at / RFU TMEM53 (11763286_at) / Fold change /veh TMEM53 (11763286_at) / RFU MAGEB2 (11727129_at) / Fold change /veh MAGEB2 (11727129_at) / RFU TMEM200A (11744735_a_at) / Fold change /veh TMEM200A (11744735_a_at) / RFU CCDC152 (11751479_a_at) / Fold change /veh CCDC152 (11751479_a_at) / RFU FAM211A (11726209_a_at) / Fold change /veh FAM211A (11726209_a_at) / RFU RGS16 (11746705_a_at) / Fold change /veh RGS16 (11746705_a_at) / RFU VCAN (11755009_s_at) / Fold change /veh VCAN (11755009_s_at) / RFU RHOB (11743442_s_at) / Fold change /veh RHOB (11743442_s_at) / RFU RGS16 (11720943_a_at) / Fold change /veh RGS16 (11720943_a_at) / RFU RGS16 (11720944_at) / Fold change /veh RGS16 (11720944_at) / RFU, VPS4B / Fold change vs veh, VPS4B / RFU, CREB1 / Fold change vs veh, CREB1 / RFU, DNAJC13 / Fold change vs veh, DNAJC13 / RFU, GNAQ / Fold change vs veh, GNAQ / RFU, CDK5R1 / Fold change vs veh, CDK5R1 / RFU, ZRANB3 / Fold change vs veh, ZRANB3 / RFU, CUL4A / Fold change vs veh, CUL4A / RFU, CCNY / Fold change vs veh, CCNY / RFU, UFL1 / Fold change vs veh, UFL1 / RFU, COG3 / Fold change vs veh, COG3 / RFU, DIAPH2 / Fold change vs veh, DIAPH2 / RFU, SKA2 / Fold change vs veh, SKA2 / RFU, AFF3 / Fold change vs veh, AFF3 / RFU, LMF1 / Fold change vs veh, LMF1 / RFU, IPO11 / Fold change vs veh, IPO11 / RFU, DFFB / Fold change vs veh, DFFB / RFU, FOXP1 / Fold change vs veh, FOXP1 / RFU, CARD8 / Fold change vs veh, CARD8 / RFU, STRN3 / Fold change vs veh, STRN3 / RFU, ADK / Fold change vs veh, ADK / RFU, RASSF2 / Fold change vs veh, RASSF2 / RFU, WIPF1 / Fold change vs veh, WIPF1 / RFU, LARP1B / Fold change vs veh, LARP1B / RFU, RASA1 / Fold change vs veh, RASA1 / RFU, RB1 / Fold change vs veh, RB1 / RFU, PPFIA1 / Fold change vs veh, PPFIA1 / RFU, MAT2A / Fold change vs veh, MAT2A / RFU, CCT5 / Fold change vs veh, CCT5 / RFU, WDR92 / Fold change vs veh, WDR92 / RFU, CUX1 / Fold change vs veh, CUX1 / RFU, TTC7A / Fold change vs veh, TTC7A / RFU, TMEM135 / Fold change vs veh, TMEM135 / RFU, DEPTOR / Fold change vs veh, DEPTOR / RFU, CPM / Fold change vs veh, CPM / RFU, DNAJB6 / Fold change vs veh, DNAJB6 / RFU, CACNA2D3 / Fold change vs veh, CACNA2D3 / RFU, DTX4 / Fold change vs veh, DTX4 / RFU, TFCP2 / Fold change vs veh, TFCP2 / RFU, GMCL1 /// GMCL1P1 / Fold change vs veh, GMCL1 /// GMCL1P1 / RFU, AEBP2 / Fold change vs veh, AEBP2 / RFU, SNHG1 /// SNORD22 /// SNORD25 /// SNORD26 /// SNORD27 /// SNORD28 /// SNORD29 /// SNORD31 / Fold change vs veh, SNHG1 /// SNORD22 /// SNORD25 /// SNORD26 /// SNORD27 /// SNORD28 /// SNORD29 /// SNORD31 / Fold change (Aza/veh), C12orf56 (ProbeSet 11735607_a_at) / Fold change (ACY-1035/veh), C12orf56 (ProbeSet 11735607_a_at) / Fold change (Aza/veh), FGFR1OP (ProbeSet 11751329_s_at) / Fold change (ACY-1035/veh), FGFR1OP (ProbeSet 11751329_s_at) / Fold change (Aza/veh), VPS36 (ProbeSet 11739960_a_at) / Fold change (ACY-1035/veh), VPS36 (ProbeSet 11739960_a_at) / RFU SYPL1 (11715823_x_at) / Fold change /veh SYPL1 (11715823_x_at) / RFU IGFBP7 (11715501_s_at) / Fold change /veh IGFBP7 (11715501_s_at) / RFU REEP3 (11722064_at) / Fold change /veh REEP3 (11722064_at) / RFU IGLL1 (11728026_x_at) / Fold change /veh IGLL1 (11728026_x_at): dose or concentration left out as unconfirmed
# Conditions: MV-4-11 cells, 48 hours
smiles,measurement,value
Nc1ncn([C@@H]2O[C@H](CO)[C@@H](O)[C@H]2O)c(=O)n1 [azacitidine],RFU LOC101060620 /// MAPK8IP1 (11723275_at),10.14 RFU
